The source of these data is US20240050463A1, “THERAPEUTIC COMPOSITIONS AND METHODS FOR TREATING HEPATITIS B” (ARBUTUS BIOPHARMA CORPORATION, priority 2016, published 2024).

The test system of test [1] is hepatitis B virus (HBV). The test is described as follows: Serum HBV DNA in mouse model of HBV (pHBV1.3 hydrodynamic injection), quantitative PCR. Conditions: mean ± SEM. The test is classed as in vivo, NOD.CB17-Prkdc^scid/J mice. The method, then:
A mouse model of hepatitis B virus (HBV) was used to assess the anti-HBV effects of a small molecule inhibitor of HBV encapsidation (Compound 3) and HBV-targeting siRNAs, both as independent treatments and in combination with each other.
On Day −7, 10 micrograms of the plasmid pHBV1.3 (as per Guidotti, L., et al., Journal of Virology, 1995, 69(10): 6158-6169) was administered to NOD.CB17-Prkdc^scid/J mice via hydrodynamic injection (HDI; rapid 1.6 mL injection into the tail vein). […] As a readout of the anti-HBV effect of various treatments, serum HBV DNA concentration in mice was measured from total extracted DNA using a quantitative PCR assay (primer/probe sequences from Tanaka, Y., et al., Journal of Medical Virology, 2004, 72: 223-229).
Animals were treated with Compound 3 as follows: Starting on Day 0, a 50 mg/kg or 100 mg/kg dosage of Compound 3 was administered orally to animals on a twice-daily frequency for a total of fourteen doses between Days 0 and 7. Compound 3 was dissolved in a co-solvent formulation for administration. Negative control animals were administered either the co-solvent formulation alone, or saline. Animals were treated with lipid nanoparticle (LNP)-encapsulated HBV-targeting siRNAs as follows: On Day 0, an amount of test article equivalent to 0.1 mg/kg siRNA was administered intravenously.
The effect of these treatments was determined by collecting blood on Days 0 (pre-treatment), 4 & 7 and analyzing it for serum HBV DNA content.
Animals were treated with Compound 3 as follows: Starting on Day 0, a 100 mg/kg dosage of Compound 3 was administered orally to animals on a twice-daily frequency for a total of fourteen doses between Days 0 and 7. Compound 3 was dissolved in a co-solvent formulation for administration. Negative control animals were administered either the co-solvent formulation alone, or saline. Animals were treated with ETV as follows: Starting on Day 0, either a 100 ng/kg or a 300 ng/kg dosage of ETV was administered orally to animals on a once-daily frequency for a total of seven doses between Days 0 and 6. ETV was dissolved in DMSO to 2 mg/mL and then diluted in saline for administration.
The effect of these treatments was determined by collecting blood on Days 0 (pre-treatment), 4 & 7 and analyzing it for serum HBV DNA content. Samples with Ct values below the lower limit of quantitation (LLOQ) were set to one-half LLOQ for calculation of group means.

Test [2] deals with HBV rcDNA in HepDE19 cells. The test can be described thus: Inhibition of rcDNA in HepDE19 cells (bDNA assay), checkerboard, MacSynergy II. It is filed as cell-based, HBV (human hepatoma cell line). Also on record: key to ADDITIVE INHIBITION: % inhibition of rcDNA production. To be noted: for ADDITIVE INHIBITION: GLS-4 0 μM; for inhibition at 0.000125 µM: ETV 0.125 nM alone. Here is the method: In vitro combination studies were conducted using the method of Prichard and Shipman (Prichard M N, and Shipman C Jr., Antiviral Research, 1990, 14(4-5), 181-205; and Prichard M N, et. al., MacSynergy II). HepDE19 cell culture system is a HepG2 (human hepatocarcinoma) derived cell line that supports HBV DNA replication and cccDNA formation in a tetracycline (Tet)-regulated manner and produces HBV rcDNA and a detectable reporter molecule dependent on the production and maintenance of cccDNA (Guo et al 2007. J. Virol 81:12472-12484). HepDE19 (50,000 cells/well) were plated in 96 well collagen-coated tissue-culture treated microtiter plates in DMEM/F12 medium supplemented with 10% fetal bovine serum, 1% penicillin-streptomycin and 1 μg/ml tetracycline and incubated in a humidified incubator at 37° C. and 5% CO2 overnight. Next day, the cells were switched to fresh medium without tetracycline and incubated for 4 hrs at 37° C. and 5% CO2. […] The two inhibitors were tested both singly as well as in combinations in a checkerboard fashion such that each concentration of inhibitor A was combined with each concentration of inhibitor B to determine their combination effects on inhibition of rcDNA production. Following a 7 day-incubation of cells with compound combinations, the level of rcDNA present in the inhibitor-treated wells was measured using a Quantigene 2.0 bDNA assay kit (Affymetrix, Santa Clara, CA) with HBV specific custom probe set and manufacturers instructions. […] The RLU data from the single compound treated cells were analyzed using XL-Fit module in Microsoft Excel to determine EC50 values using a 4-parameter curve fitting algorithm. Concurrently, the effect of compounds on cell viability was assessed using replicate plates, plated at a density of 5,000 cells/well and incubated for 4 days, to determine the ATP content as a measure of cell viability using the cell-titer glo reagent (CTG; Promega Corporation, Madison, WI) as per manufacturer's instructions.
In vitro combination studies were conducted using the method of Prichard and Shipman (Prichard M N, Shipman C, Jr., Antiviral Res, 14, 181-205 (1990)). The HepDE19 cell line was developed as described in Guo et al. (Guo et al., J Virol, 81, 12472-12484 (2007)). It is a human hepatoma cell line stably transfected with the HBV genome, and which can express HBV pregenomic RNA and support HBV rcDNA (relaxed circular DNA) synthesis in a tetracycline-regulated manner. HepDE19 cells were plated in 96 well tissue-culture treated microtiter plates in DMEM/F12 medium supplemented with 10% fetal bovine serum+1% penicillin-streptomycin without tetracycline and incubated in a humidified incubator at 37° C. and 5% CO2 overnight. […] The two inhibitors were tested both singly as well as in combinations in a checkerboard fashion such that each concentration of inhibitor A was combined with each concentration of inhibitor B to determine their combination effects on inhibition of rcDNA production. Following a 48 hour-incubation, the level of rcDNA present in the inhibitor-treated wells was measured using a bDNA assay (Affymetrix) with HBV specific custom probe set and manufacturers instructions. […] Concurrently, the effect of inhibitor combinations on cell viability was assessed using replicate plates that were used to determine the ATP content as a measure of cell viability using the Cell-TiterGlo reagent (Promega) as per manufacturer's instructions.
In vitro combination studies were conducted using the method of Prichard and Shipman (1990) (Prichard M N, Shipman C, Jr. 1990. A three-dimensional model to analyze drug-drug interactions. Antiviral Res 14:181-205 AND Prichard M N. 1992. MacSynergy II, University of Michigan).

Each structure is given as a SMILES string. Read-outs that look alike come from different tables or passages of the source.

Take `CC[C@@H](C)NS(=O)(=O)c1ccc(F)c(C(=O)Nc2ccc(F)c(F)c2)c1` [Compound 3]: the “Serum HBV DNA as percentage of individual pre-treatment baseline” value in test [1] (Table 2, Day 0 (pre-treatment), Compound 3 50 mg/kg oral twice daily, alone or with HBV siRNA 0.1 mg/kg IV Day 0) was found to be 100 ± 0%; in test [1] (Table 2, Day 0 (pre-treatment), Compound 3 100 mg/kg oral twice daily, alone or with HBV siRNA 0.1 mg/kg IV Day 0) it was 100 ± 0%; in test [1] (Table 3, Day 0 (pre-treatment), Compound 3 100 mg/kg oral twice daily alone), 100 ± 0%. Moreover, the “ADDITIVE INHIBITION” value in test [2] (Compound 3 0.040 μM) stood at 11.14; in test [2] (Compound 3 0.110 μM), 19.99; in test [2] (Compound 3 0.330 μM) it was 56.68; in test [2] (Compound 3 1.000 μM) it was 86.87.
By inhibition is commonly meant the drop in the measured response relative to a control, in per cent. `C=C1[C@H](CO)[C@@H](O)C[C@@H]1n1cnc2c(=O)[nH]c(N)nc21` [ETV, Entecavir]: the “Serum HBV DNA as percentage of individual pre-treatment baseline” value in test [1] (Table 3, Day 0 (pre-treatment), ETV 100 ng/kg oral once daily, alone or with Compound 3 100 mg/kg oral twice daily) came to 100 ± 0%; in test [1] (Table 3, Day 0 (pre-treatment), ETV 300 ng/kg oral once daily, alone or with Compound 3 100 mg/kg oral twice daily) it was 100 ± 0%; in test [1] (Table 3, Day 4, ETV 100 ng/kg oral once daily, alone or with Compound 3 100 mg/kg oral twice daily), 21 ± 5%; in test [1] (Table 3, Day 4, ETV 300 ng/kg oral once daily, alone or with Compound 3 100 mg/kg oral twice daily), 1.6 ± 0.3%; in test [1] (Table 3, Day 7, ETV 100 ng/kg oral once daily, alone or with Compound 3 100 mg/kg oral twice daily), 3.5 ± 0.7%; in test [1] (Table 3, Day 7, ETV 300 ng/kg oral once daily, alone or with Compound 3 100 mg/kg oral twice daily), 0.88 ± 0.31%. In addition, in test [2] (Hepatitis B virus, HepDE19, ETV 0.015625 nM alone, read-out: Additive inhibition (rcDNA)), the inhibition at 15.63 pM was -43.7%. The inhibition at 16 pM in test [2] (Hepatitis B virus, HepDE19, ETV 0.016 nM alone) was -43.7%. Besides, the inhibition at 31 pM in test [2] (Hepatitis B virus, HepDE19, ETV 0.031 nM alone) was -50.1%. In addition, the inhibition at 31.25 pM in test [2] (Hepatitis B virus, HepDE19, ETV 0.03125 nM alone, read-out: Additive inhibition (rcDNA)) was -50.1%. The inhibition at 62.5 pM in test [2] (Hepatitis B virus, HepDE19, ETV 0.0625 nM alone, read-out: Additive inhibition (rcDNA)) is -30.3%. The inhibition at 63 pM in test [2] (Hepatitis B virus, HepDE19, ETV 0.063 nM alone) is -30.3%. Also, the inhibition at 0.000125 µM was -23.5% in test [2] (Hepatitis B virus, HepDE19, read-out: Additive inhibition (rcDNA)) and -23.5% in test [2] (Hepatitis B virus, HepDE19, read-out: Average % inhibition (rcDNA)). In addition, the inhibition at 0.00025 µM is -21.2% in test [2] (Hepatitis B virus, HepDE19, ETV 0.25 nM alone, read-out: Additive inhibition (rcDNA)) and -21.2% in test [2] (Hepatitis B virus, HepDE19, ETV 0.250 nM alone, read-out: Average % inhibition (rcDNA)). Moreover, the inhibition at 0.0005 µM in test [2] (Hepatitis B virus, HepDE19, ETV 0.5 nM alone, read-out: Additive inhibition (rcDNA)) is -10.2%; in test [2] (Hepatitis B virus, HepDE19, ETV 0.500 nM alone, read-out: Average % inhibition (rcDNA)) it was -10.2%. Moreover, the inhibition at 0.001 µM in test [2] (Hepatitis B virus, HepDE19, ETV 1 nM alone, read-out: Additive inhibition (rcDNA)) is 41.7%; in test [2] (Hepatitis B virus, HepDE19, ETV 1.000 nM alone, read-out: Average % inhibition (rcDNA)) it was 41.7%. The inhibition at 0.002 µM was 58.4% in test [2] (Hepatitis B virus, HepDE19, ETV 2 nM alone, read-out: Additive inhibition (rcDNA)) and 58.4% in test [2] (Hepatitis B virus, HepDE19, ETV 2.000 nM alone, read-out: Average % inhibition (rcDNA)). Besides, the inhibition at 0.004 µM in test [2] (Hepatitis B virus, HepDE19, ETV 4 nM alone, read-out: Additive inhibition (rcDNA)) worked out at 70%; in test [2] (Hepatitis B virus, HepDE19, ETV 4.000 nM alone, read-out: Average % inhibition (rcDNA)), 70%.
